Series [1] deals with tomato plant leaves. Conditions: in vivo.
Series [2] concerns tomato plant leaves. As to the kind of experiment: Phytotoxicity study: number of injured leaves after foliar application. Conditions: for Number of injured leaves: 25 ppm ABA analog alone, one foliar application; for Phytotoxicity (in words): 25 ppm alone, 10-day experimental period.
In series [3] the test system is tomato leaf transpiration. The series is described as follows: Tomato leaf transpiration inhibition after foliar application (LI-1600 Steady State Porometer). The format is in vivo, Tomato (variety: Rutgers).

Like-named read-outs stand apart in the source and are kept apart here.

With `N.N.O=S(=O)(O)O` [(NH4)2SO4, ammonium sulfate], in the series on tomato plant leaves [1], the “Phytotoxicity (in words)” value is “showed phytotoxicity”.
Regarding `C#CC1(C)CC(=O)C=C(C)C1(O)/C=C/C(C)=C\C(=O)OC` (centres unmarked) [PBI-429, 8′ acetylene-ABA methyl ester], the “Number of injured leaves” value in the series on tomato plant leaves [2] (5 days after treatment) and with tomato plant leaves [2] (10 days after treatment) was 0.0 in each case. Further, the “Phytotoxicity (in words)” value with tomato plant leaves [2] is reported as “did not show any phytotoxicity”. The “Transpiration rate (% of control)” value is given as 60 % of control in series [3] (25 ppm alone, 1 day after treatment); 42 % of control in series [3] (25 ppm alone, 2 days after treatment); 64 % of control in series [3] (25 ppm alone, 3 days after treatment); 63 % of control in series [3] (25 ppm alone, 4 days after treatment); 87 % of control in series [3] (25 ppm alone, 7 days after treatment). Besides, in series [3] (25 ppm alone, average over days 1-7), the “Transpiration rate (% of control), Average” value is recorded as 63 % of control.
Regarding `C#CC1(C)CC(=O)C=C(C)C1(O)C=CC(C)=CC(=O)O` (centres unmarked) [PBI-524, 8′ acetylene-ABA, acid], the “Number of injured leaves” value with tomato plant leaves [2] (5 days after treatment) and with tomato plant leaves [2] (10 days after treatment) was 0.0 throughout. In addition, the “Phytotoxicity (in words)” value with tomato plant leaves [2] was “did not show any phytotoxicity”.
As for `NC(N)=O` [Urea, urea], the “Transpiration rate (% of control)” value was 103 % of control in series [3] (1 mM alone, 1 day after treatment); 98 % of control in series [3] (1 mM alone, 2 days after treatment); 98 % of control in series [3] (1 mM alone, 3 days after treatment); 100 % of control in series [3] (1 mM alone, 4 days after treatment); 101 % of control in series [3] (10 mM alone, 1 day after treatment); 103 % of control in series [3] (10 mM alone, 2 days after treatment). Further, the “Transpiration rate (% of control)” value in series [3] (10 mM alone, 3 days after treatment) was 106 % of control; in series [3] (10 mM alone, 4 days after treatment), 101 % of control; in series [3] (100 mM alone, 1 day after treatment), 102 % of control; in series [3] (100 mM alone, 2 days after treatment) it was 102 % of control; in series [3] (100 mM alone, 3 days after treatment), 107 % of control; in series [3] (100 mM alone, 4 days after treatment), 102 % of control. Moreover, in series [3] (1, 10 or 100 mM alone, 4-day experimental period), the “Effect on tomato leaf transpiration (in words)” value was “Neither urea nor ammonium nitrate at any of three tested concentrations significantly reduced tomato leaf transpiration”.
